# Data reported in patent publication US20110225663A1, “METHOD FOR PRODUCING EUKARYOTIC ORGANISMS WITH ENHANCED PATHOGEN RESISTANCE AND/OR RESISTANCE TO STRESS AND EUKARYOTIC TRANSGENIC ORGANISMS WITH ENHANCED PATHOGEN RESISTANCE AND/OR RESISTANCE TO STRESS” (WESTFAELISCHE WILHELMS-UNIVERSITAET MUENSTER, priority 2008, published 2011).
# Legend:
# [1] = test system: NADPH oxidase
# From the text: This leads to the formation of hypersensitive lesions in leaf tissue of resistant varieties after pathogen infection (incompatible interaction).
# [2] = molecular target: Arabidopsis thaliana glucose-6-phosphate dehydrogenase isoform At1g24280 (P2 class), N-terminally truncated without transit peptide (cP2, 5′ delta 195 bp) (Arabidopsis thaliana, UniProt Q8L743); test: biochemical
# [3] = molecular target: Arabidopsis glucose-6-phosphate dehydrogenase P2 (At1g24280), recombinant enzyme with C-terminal Strep-tag; settings: cited from earlier work
# [4] = test system: G6PDH; test: Inhibitor study with Glucosamine-6-P in tobacco leaves infected with P. nicotianae; format: in vivo
# From the text: The involvement of the oxidative pentose phosphate pathway (OPPP) in the oxidative burst of plants was shown by inhibitor studies with Glucosamine-6 phosphate (Glucosamine-6-P). This is a well-known competitive inhibitor for G6PDH (as described in Glaser B L and Brown D H: Purification and properties of D-glucose 6-phosphate dehydrogenase, J Biol Chem 216, pp 67-79 (1955)), the first enzyme of the OPPP, which transforms G6P into 6-phosphogluconolactone.
# Hydrogen peroxide (H2O2) accumulation was detected by in situ staining with 3,3-diaminobenzidine (DAB) following a modified protocol of Thordal-Christensen H, Zhang Z G, Wei Y D, Collinge D B: Subcellular localization of H2O2 in plants: H2O2 accumulation in papillae and hypersensitive response during the barley-powdery mildew interaction, Plant J 11, pp 1187-1194 (1997). Leaves were placed in DAB solution (1 mg mL^−1, pH 3.8) for 6 h. A dark-brown polymerization product formed at sites where DAB reacts with H2O2 produced by the tissue. Incubations were stopped and leaf tissue was simultaneously cleared from chlorophyll by boiling in ethanol for 10 min.
# [5] = FIG. 2 bottom, infiltrated tobacco leaf
# Chain of Arabidopsis thaliana glucose-6-phosphate dehydrogenase isoform At1g24280 (P2 class), N-terminally truncated without transit peptide (cP2, 5′ delta 195 bp) (Q8L743 67-599): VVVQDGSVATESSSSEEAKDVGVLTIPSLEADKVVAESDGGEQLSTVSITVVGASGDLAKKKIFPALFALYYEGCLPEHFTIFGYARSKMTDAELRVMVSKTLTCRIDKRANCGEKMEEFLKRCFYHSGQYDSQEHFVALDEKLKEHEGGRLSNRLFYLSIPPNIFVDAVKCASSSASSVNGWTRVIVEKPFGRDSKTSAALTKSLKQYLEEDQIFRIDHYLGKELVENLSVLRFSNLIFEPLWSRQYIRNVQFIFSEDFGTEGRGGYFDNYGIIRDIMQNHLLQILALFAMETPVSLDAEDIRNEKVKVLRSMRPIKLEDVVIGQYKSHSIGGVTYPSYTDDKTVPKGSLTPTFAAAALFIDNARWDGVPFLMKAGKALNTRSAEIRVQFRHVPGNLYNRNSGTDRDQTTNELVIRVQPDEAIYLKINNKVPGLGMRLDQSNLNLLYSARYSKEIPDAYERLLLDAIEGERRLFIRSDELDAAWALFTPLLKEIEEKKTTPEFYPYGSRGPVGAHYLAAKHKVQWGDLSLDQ
structure (smiles),measurement,setting,value
"c1ccc2c(c1)[I+]c1ccccc1-2 [DPI, diphenylene iodonium]",defence-induced H2O2 production (DAB-staining) and formation of hypersensitive lesions,[1]; [5],Interference
same,formation of hypersensitive lesions after infection with P. nicotianae,[1]; tobacco leaves treated with 25-100 mM DPI,did not induce the formation of hypersensitive lesions
"NC(=O)C1=CN([C@@H]2O[C@H](COP(=O)(O)OP(=O)(O)OC[C@H]3O[C@@H](n4cnc5c(N)ncnc54)[C@H](OP(=O)(O)O)[C@@H]3O)[C@@H](O)[C@H]2O)C=CC1 [NADPH, nicotinamide-dinucleotide phosphate, reduced form]",Ki,[2],4.6 µM
same,Ki,"[3]; Wakao and Benning (2005), read-out: Ki[NADPH]",22 µM
"N[C@@H]1[C@@H](O)[C@H](O)[C@@H](COP(=O)(O)O)O[C@@H]1O [GN6P, Glucosamine-6 phosphate]",defence-induced H2O2 production (DAB-staining) and formation of hypersensitive lesions,[4]; [5],Interference
same,ROS production after infection with P. nicotianae,[4]; tobacco leaves treated with 25-50 mM GN6P,did not result in detectable ROS production
"NC(=O)c1ccc[n+]([C@@H]2O[C@H](COP(=O)(O)OP(=O)(O)OC[C@H]3O[C@@H](n4cnc5c(N)ncnc54)[C@H](OP(=O)(O)O)[C@@H]3O)[C@@H](O)[C@H]2O)c1 [NADP+, nicotinamide-dinucleotide phosphate, oxidized form]",Km,"[3]; read-out: Km[NADP+], Wakao and Benning (2005)",17 µM
